In patent publication US6930185B2, “Melanin-concentrating hormone antagonist” (Takeda Chemical Industries, Ltd., priority 2000, dated 2005) one finds melting point data, which are given here for 30 compounds.

As usually defined, the melting point is the temperature of the solid-liquid transition.

The compound `O=C(Oc1ccc2cc(CN3CCCC3)ccc2c1)N1CCC(c2ccc(Cl)cc2)CC1` gave a melting point of 121 to 123 °C.

With `COc1ccc(C2CCN(C(=O)Oc3ccc4cc(CN5CCCC5)ccc4c3)CC2)cc1`, the melting point was 127 to 129 °C. `Cc1ccc(C2CCN(C(=O)Oc3ccc4cc(CN5CCCC5)ccc4c3)CC2)cc1` returned a melting point of 238 to 240 °C. `O=C(Oc1ccc2cc(CN3CCCC3)ccc2c1)N1CCC(c2ccc(F)cc2)CC1` had a melting point of 106 to 108 °C. The figure for `Cl.O=C(Oc1ccc2cc(CN3CCCC3)ccc2c1)N1CCC(c2ccccc2)CC1` is 213 to 215 °C; for `O=C(Nc1ccc2nc(CN3CCCCC3)ccc2c1)c1ccc(-c2ccc(F)cc2F)cc1` (hydrate or solvate) [Example 68, 2′,4′-Difluoro-N-[2-(1-piperidinylmethyl)-6-quinolinyl][1,1′-biphenyl]-4-carboxamide] it is 181 to 182 °C. The figure for `O=C(Nc1ccc2cc(CN3CCCC3)ccc2c1)c1ccc(-c2ccc(Cl)cc2)cc1` [Example 2, 4′-Chloro-N-[6-(1-pyrrolidinylmethyl)-2-naphthyl][1,1′-biphenyl]-4-carboxamide] is 214 to 217 °C; for `CN(C)Cc1ccc2cc(NC(=O)c3ccc(-c4ccc(Cl)cc4)cc3)ccc2n1` [Example 6, 4′-Chloro-N-[2-[(N,N-dimethylamino)methyl]-6-quinolinyl][1,1′-biphenyl]-4-carboxamide] it is 219 to 221 °C; for `O=C(Nc1ccc2nc(CN3CCCC3)ccc2c1)c1ccc(-c2ccc(F)cc2)cc1` [Example 7, 4′-Fluoro-N-[2-(1-pyrrolidinylmethyl)-6-quinolinyl][1,1′-biphenyl]-4-carboxamide] it is 190 to 193 °C. `O=C(Nc1ccc2nc(CN3CCCC3)ccc2c1)c1ccc(-c2ccc(Cl)cc2)cc1` [Example 8, 4′-Chloro-N-[2-(1-pyrrolidinylmethyl)-6-quinolinyl][1,1′-biphenyl]-4-carboxamide] displayed a melting point of 200 to 202 °C. For `O=C(Nc1ccc2nc(CN3CCCCC3)ccc2c1)c1ccc(-c2ccc(F)cc2)cc1` [Example 9, 4′-Fluoro-N-[2-(1-piperidinylmethyl)-6-quinolinyl][1,1′-biphenyl]-4-carboxamide] the value was 202 to 204 °C; for `O=C(Nc1ccc2nc(CN3CCCCC3)ccc2c1)c1ccc(-c2ccc(Cl)cc2)cc1` [Example 10, 4′-Chloro-N-[2-(1-piperidinylmethyl)-6-quinolinyl][1,1′-biphenyl]-4-carboxamide], 211 to 213 °C. Consider `O=C(Nc1ccc2nc(CN3CCOCC3)ccc2c1)c1ccc(-c2ccc(Cl)cc2)cc1` [Example 11, 4′-Chloro-N-[2-(4-morpholinylmethyl)-6-quinolinyl][1,1′-biphenyl]-4-carboxamide], for which the melting point lay in the range of 236 to 238 °C. Turning to `O=C(Nc1ccc2nc(CN3CCOCC3)ccc2c1)c1ccc(-c2ccccc2)cc1` [Example 12, N-[2-(4-Morpholinylmethyl)-6-quinolinyl][1,1′-biphenyl]-4-carboxamide], the melting point was 214 to 215 °C. For `O=C(Nc1ccc2nc(CN3CCOCC3)ccc2c1)c1ccc(-c2ccc(F)cc2)cc1` [Example 13, 4′-Fluoro-N-[2-(4-morpholinylmethyl)-6-quinolinyl][1,1′-biphenyl]-4-carboxamide] the value was 211 to 212 °C; for `Cc1ccc(-c2ccc(C(=O)Nc3ccc4nc(CN5CCOCC5)ccc4c3)cn2)cc1` [Example 14, 6-(4-Methylphenyl)-N-[2-(4-morpholinylmethyl)-6-quinolinyl]nicotinamide], 214 to 216 °C. For `CN(C)Cc1ccc2cc(NC(=O)c3ccc(-c4ccccc4)cc3)ccc2n1` [Example 15, N-[2-[(Dimethylamino)methyl]-6-quinolinyl][1,1′-biphenyl]-4-carboxamide] the value was 191 to 194 °C. Take `CN(C)Cc1ccc2cc(NC(=O)c3ccc(-c4ccc(F)cc4)cc3)ccc2n1` [Example 16, N-[2-[(Dimethylamino)methyl]-6-quinolinyl]-4′-fluoro[1,1′-biphenyl]-4-carboxamide]: the melting point lay in the range of 205 to 208 °C.

`Cc1ccc(-c2ccc(C(=O)Nc3ccc4nc(CN(C)C)ccc4c3)cn2)cc1` [Example 17, N-[2-[(Dimethylamino)methyl]-6-quinolinyl]-6-(4-methylphenyl)nicotinamide] came in with a melting point of 220 to 222 °C. For `CC1CCN(c2ccc(C(=O)Nc3ccc4nc(CN5CCCC5)ccc4c3)cc2)CC1` [Example 21, 4-(4-Methyl-1-piperidinyl)-N-[2-(1-pyrrolidinylmethyl)-6-quinolinyl]benzamide] the value was 200 to 202 °C. For `O=C(Nc1ccc2nc(CN3CCCC3)ccc2c1)c1ccc(N2CCCCC2=O)cc1` [Example 22, 4-(2-Oxo-1-piperidinyl)-N-[2-(1-pyrrolidinylmethyl)-6-quinolinyl]benzamide] the value was 210 to 212 °C. The figure for `CN1CCN(Cc2ccc3cc(NC(=O)c4ccc(-c5ccc(Cl)cc5)cc4)ccc3n2)CC1` [Example 24, 4′-Chloro-N-[2-[(4-methyl-1-piperazinyl)methyl]-6-quinolinyl][1,1′-biphenyl]-4-carboxamide] is 215 °C (dec.); for `O=C(Nc1ccc2nc(CN3CCCC3)ccc2c1)N1CCC(c2ccc(F)cc2)CC1` [Example 38, 4-(4-Fluorophenyl)-N-[2-(1-pyrrolidinylmethyl)-6-quinolinyl]-1-piperidinecarboxamide] it is 206 to 207 °C.

As to `O=C(Nc1ccc2nc(CN3CCCC3)ccc2c1)N1CCC(c2ccccc2)CC1` [Example 39, 4-Phenyl-N-[2-(1-pyrrolidinylmethyl)-6-quinolinyl]-1-piperidinecarboxamide], the melting point lay in the range of 187 to 189 °C. The figure for `O=C(Nc1ccc2nc(CN3CCCC3)ccc2c1)N1CCC(c2ccc(Cl)cc2)CC1` [Example 40, 4-(4-Chlorophenyl)-N-[2-(1-pyrrolidinylmethyl)-6-quinolinyl]-1-piperidinecarboxamide] is 205 °C (dec.); for `Cc1ccc(C2CCN(C(=O)Nc3ccc4nc(CN5CCCC5)ccc4c3)CC2)cc1` [Example 41, 4-(4-Methylphenyl)-N-[2-(1-pyrrolidinylmethyl)-6-quinolinyl]-1-piperidinecarboxamide] it is 214 to 216 °C.

Take `COc1ccc(-c2ccc(C(=O)Nc3ccc4nc(CN5CCCC5)ccc4c3)cn2)cc1` [Example 42, 6-(4-Methoxyphenyl)-N-[2-(1-pyrrolidinylmethyl)-6-quinolinyl]nicotinamide]: the melting point was 210 °C (dec.). The figure for `O=C(Nc1ccc2nc(CN3CCCC3)ccc2c1)c1ccc(-c2ccccc2)cc1` [Example 43, N-[2-(1-Pyrrolidinylmethyl)-6-quinolinyl][1,1′-biphenyl]-4-carboxamide] is 181 to 183 °C; for `O=C(Nc1ccc2nc(CN3CCCC3)ccc2c1)c1ccc(-c2ccc(Cl)cc2)nc1` [Example 44, 6-(4-Chlorophenyl)-N-[2-(1-pyrrolidinylmethyl)-6-quinolinyl]nicotinamide] it is 225 to 227 °C.

Consider `O=C(Nc1ccc2nc(CN3CCCC3)ccc2c1)c1ccc(-c2ccc(F)cc2)nc1` [Example 45, 6-(4-Fluorophenyl)-N-[2-(1-pyrrolidinylmethyl)-6-quinolinyl]nicotinamide], for which the melting point turned out to be 210 °C.
